Source: ChEMBL document CHEMBL2086254, “Synthesis and identification of novel indolo[2,3-a]pyrimido[5,4-c]carbazoles as a new class of anti-cancer agents” (Eur J Med Chem, 2012)

Key:
Format in all cases: functional
Malme-3M = assay: Cytotoxicity against human MALME-3M cells assessed as cell growth at 10 uM after 48 hrs by SRB assay relative to control; conditions: read-out: Activity
SF-295 = assay: Cytotoxicity against human SF295 cells assessed as cell growth at 10 uM after 48 hrs by SRB assay relative to control; conditions: SF-295, 48 h, read-out: Activity
ACHN = assay: Cytotoxicity against human ACHN cells assessed as cell growth at 10 uM after 48 hrs by SRB assay relative to control; conditions: read-out: Activity
U-251 = assay: Cytotoxicity against human U251 cells assessed as cell growth at 10 uM after 48 hrs by SRB assay relative to control; conditions: U-251, 48 h, read-out: Activity
NCI-H226 = assay: Cytotoxicity against human NCI-H226 cells assessed as cell growth at 10 uM after 48 hrs by SRB assay relative to control; conditions: NCI-H226, 48 h, read-out: Activity
SK-MEL-5 = assay: Cytotoxicity against human SK-MEL-5 cells assessed as cell growth at 10 uM after 48 hrs by SRB assay relative to control; conditions: SK-MEL-5, 48 h, read-out: Activity
T47D = assay: Cytotoxicity against human T47D cells assessed as cell growth at 10 uM after 48 hrs by SRB assay relative to control; conditions: read-out: Activity
NCI-H23 = assay: Cytotoxicity against human NCI-H23 cells assessed as cell growth at 10 uM after 48 hrs by SRB assay relative to control; conditions: NCI-H23, 48 h, read-out: Activity
EKVX = assay: Cytotoxicity against human EKVX cells assessed as cell growth at 10 uM after 48 hrs by SRB assay relative to control; conditions: read-out: Activity
TK-10 = assay: Cytotoxicity against human TK10 cells assessed as cell growth at 10 uM after 48 hrs by SRB assay relative to control; conditions: TK-10, 48 h, read-out: Activity
NCI-H522 = assay: Cytotoxicity against human NCI-H522 cells assessed as cell growth at 10 uM after 48 hrs by SRB assay relative to control; conditions: NCI-H522, 48 h, read-out: Activity
UACC-257 = assay: Cytotoxicity against human UACC257 cells assessed as cell growth at 10 uM after 48 hrs by SRB assay relative to control; conditions: UACC-257, 48 h, read-out: Activity
[1] = Cytotoxicity against human Hs 578T cells assessed as cell growth at 10 uM after 48 hrs by SRB assay relative to control; conditions: read-out: Activity
PC-3 = assay: Cytotoxicity against human PC3 cells assessed as cell growth at 10 uM after 48 hrs by SRB assay relative to control; conditions: PC-3, 48 h, read-out: Activity
SNB-19 = assay: Cytotoxicity against human SNB19 cells assessed as cell growth at 10 uM after 48 hrs by SRB assay relative to control; conditions: SNB-19, 48 h, read-out: Activity
M14 = assay: Cytotoxicity against human M14 cells assessed as cell growth at 10 uM after 48 hrs by SRB assay relative to control; conditions: M14, 48 h, read-out: Activity
A498 = assay: Cytotoxicity against human A498 cells assessed as cell growth at 10 uM after 48 hrs by SRB assay relative to control; conditions: A498, 48 h, read-out: Activity
RPMI-8226 = assay: Cytotoxicity against human RPMI8226 cells assessed as cell growth at 10 uM after 48 hrs by SRB assay relative to control; conditions: RPMI-8226, 48 h, read-out: Activity
SK-MEL-2 = assay: Cytotoxicity against human SK-MEL-2 cells assessed as cell growth at 10 uM after 48 hrs by SRB assay relative to control; conditions: SK-MEL-2, 48 h, read-out: Activity
SK-MEL-28 = assay: Cytotoxicity against human SK-MEL-28 cells assessed as cell growth at 10 uM after 48 hrs by SRB assay relative to control; conditions: SK-MEL-28, 48 h, read-out: Activity
DU-145 = assay: Cytotoxicity against human DU145 cells assessed as cell growth at 10 uM after 48 hrs by SRB assay relative to control; conditions: DU-145, 48 h, read-out: Activity
OVCAR-8 = assay: Cytotoxicity against human OVCAR8 cells assessed as cell growth at 10 uM after 48 hrs by SRB assay relative to control; conditions: OVCAR-8, 48 h, read-out: Activity
K562 = assay: Cytotoxicity against human K562 cells assessed as cell growth at 10 uM after 48 hrs by SRB assay relative to control; conditions: K562, 48 h, read-out: Activity
MDA-MB-435 = assay: Cytotoxicity against human MDA-MB-435 cells assessed cell growth at 10 uM after 48 hrs by SRB assay relative to control
SW-620 = assay: Cytotoxicity against human SW620 cells assessed as cell growth at 10 uM after 48 hrs by SRB assay relative to control; conditions: SW-620, 48 h, read-out: Activity
NCI-H460 = assay: Cytotoxicity against human NCI-H460 cells assessed as cell growth at 10 uM after 48 hrs by SRB assay relative to control; conditions: NCI-H460, 48 h, read-out: Activity
UACC-62 = assay: Cytotoxicity against human UACC62 cells assessed as cell growth at 10 uM after 48 hrs by SRB assay relative to control; conditions: UACC-62, 48 h, read-out: Activity
SNB-75 = assay: Cytotoxicity against human SNB75 cells assessed as cell growth at 10 uM after 48 hrs by SRB assay relative to control; conditions: SNB-75, 48 h, read-out: Activity
HCT-116 = assay: Cytotoxicity against human HCT116 cells assessed as cell growth at 10 uM after 48 hrs by SRB assay relative to control; conditions: HCT-116, 48 h, read-out: Activity
NCI/ADR-RES = assay: Cytotoxicity against human NCI/ADR-RES cells assessed as cell growth at 10 uM after 48 hrs by SRB assay relative to control; conditions: read-out: Activity
SK-OV-3 = assay: Cytotoxicity against human SKOV3 cells assessed as cell growth at 10 uM after 48 hrs by SRB assay relative to control; conditions: SK-OV-3, 48 h, read-out: Activity
SF-268 = assay: Cytotoxicity against human SF268 cells assessed as cell growth at 10 uM after 48 hrs by SRB assay relative to control; conditions: SF-268, 48 h, read-out: Activity
HCC 2998 = assay: Cytotoxicity against human HCC2998 cells assessed as cell growth at 10 uM after 48 hrs by SRB assay relative to control; conditions: HCC 2998, 48 h, read-out: Activity
A549 = assay: Cytotoxicity against human A549 cells assessed as cell growth at 10 uM after 48 hrs by SRB assay relative to control; conditions: A549, 48 h, read-out: Activity
RXF 393 = assay: Cytotoxicity against human RXF393 cells assessed as cell growth at 10 uM after 48 hrs by SRB assay relative to control; conditions: RXF 393, 48 h, read-out: Activity

| Compound | growth at 10 µM (Malme-3M) [%] | growth at 10 µM (SF-295) [%] | growth at 10 µM (ACHN) [%] | growth at 10 µM (U-251) [%] | growth at 10 µM (NCI-H226) [%] | growth at 10 µM (SK-MEL-5) [%] | growth at 10 µM (T47D) [%] | growth at 10 µM (NCI-H23) [%] | growth at 10 µM (EKVX) [%] | growth at 10 µM (TK-10) [%] | growth at 10 µM (NCI-H522) [%] | growth at 10 µM (UACC-257) [%] | growth at 10 µM [1] [%] | growth at 10 µM (PC-3) [%] | growth at 10 µM (SNB-19) [%] | growth at 10 µM (M14) [%] | growth at 10 µM (A498) [%] | growth at 10 µM (RPMI-8226) [%] | growth at 10 µM (SK-MEL-2) [%] | growth at 10 µM (SK-MEL-28) [%] | also measured |
| --- | --- | --- | --- | --- | --- | --- | --- | --- | --- | --- | --- | --- | --- | --- | --- | --- | --- | --- | --- | --- | --- |
| Cn1cc(-c2[nH]c(=S)[nH]c(=O)c2-c2cn(C)c3ccccc23)c2ccccc21 | 99.5 | 94.2 | 95.5 | 89 | 87.1 | 96.2 | 98.3 | 94.2 | 75 | 96.3 | 96.7 | 94.2 | 103 | 92.1 | 105 | 106 | 102 | 91 | 111 | 104 | growth at 10 µM (DU-145): 110%; growth at 10 µM (OVCAR-8): 102%; growth at 10 µM (K562): 87%; Activity (MDA-MB-435): 77.23%; growth at 10 µM (SW-620): 98%; growth at 10 µM (NCI-H460): 93%; growth at 10 µM (UACC-62): 93.4%; growth at 10 µM (SNB-75): 85.7%; growth at 10 µM (HCT-116): 98.8%; growth at 10 µM (NCI/ADR-RES): 101%; growth at 10 µM (SK-OV-3): 100%; growth at 10 µM (SF-268): 106%; growth at 10 µM (HCC 2998): 113%; growth at 10 µM (A549): 103%; growth at 10 µM (RXF 393): 123% |
| Cn1c2ccccc2c2c3nc(N)[nH]c(=O)c3c3c4ccccc4n(C)c3c21 | 36.2 | 86.6 | 29.5 | 76.1 | 78.1 | 48.8 | 75 | 65.4 | 73.5 | 50.1 | 46.1 | 79.7 | 113 | 59.1 | 122 | 34.9 | 114 | 61.4 | 32 | 91 | growth at 10 µM (DU-145): 44.9%; growth at 10 µM (OVCAR-8): 43.1%; growth at 10 µM (K562): 44.4%; Activity (MDA-MB-435): 24.36%; growth at 10 µM (SW-620): 31.6%; growth at 10 µM (NCI-H460): 40.6%; growth at 10 µM (UACC-62): 81.3%; growth at 10 µM (SNB-75): 96.8%; growth at 10 µM (HCT-116): 34%; growth at 10 µM (NCI/ADR-RES): 48.7%; growth at 10 µM (SK-OV-3): 34.9%; growth at 10 µM (SF-268): 73.5%; growth at 10 µM (HCC 2998): 60.9%; growth at 10 µM (A549): 58.5%; growth at 10 µM (RXF 393): 94% |
| Cn1c2ccccc2c2c3c(=O)[nH]c(N)nc3c3c4cccnc4n(C)c3c21 | 119 | 94.1 | 54.1 | 81.2 | 65 | 74.7 | 48.7 | 86.3 | 82.2 | 76.4 | 35 | 129 | 128 | 71 | 103 | 68.8 | 97.5 | 64.4 | 68.5 | 120 | growth at 10 µM (DU-145): 83.2%; growth at 10 µM (OVCAR-8): 60.1%; growth at 10 µM (K562): 74%; Activity (MDA-MB-435): 87.02%; growth at 10 µM (SW-620): 72%; growth at 10 µM (NCI-H460): 65.5%; growth at 10 µM (UACC-62): 87%; growth at 10 µM (SNB-75): 74.1%; growth at 10 µM (HCT-116): 63%; growth at 10 µM (NCI/ADR-RES): 80.2%; growth at 10 µM (SK-OV-3): 87.2%; growth at 10 µM (SF-268): 95.6%; growth at 10 µM (HCC 2998): 104%; growth at 10 µM (A549): 92.9%; growth at 10 µM (RXF 393): 87.4% |
| Cn1cc(-c2c(-c3cn(C)c4ncccc34)nc(N)[nH]c2=O)c2ccccc21 | 107 | 98.2 | 87.6 | 77.5 | 84.2 | 96.5 | 83 | 92.6 | 96.3 | 113 | 88 | 103 | 101 | 84.2 | 111 | 103 | 85.7 | 85.1 | 105 | 11 | growth at 10 µM (DU-145): 107%; growth at 10 µM (OVCAR-8): 95.8%; growth at 10 µM (K562): 95%; Activity (MDA-MB-435): 98.77%; growth at 10 µM (SW-620): 97.5%; growth at 10 µM (NCI-H460): 98.4%; growth at 10 µM (UACC-62): 97%; growth at 10 µM (SNB-75): 87.5%; growth at 10 µM (HCT-116): 98%; growth at 10 µM (NCI/ADR-RES): 101%; growth at 10 µM (SK-OV-3): 98.3%; growth at 10 µM (SF-268): 101%; growth at 10 µM (HCC 2998): 109%; growth at 10 µM (A549): 102%; growth at 10 µM (RXF 393): 124% |
